Assay results reported in US7687510B2, “Pyrimidinone derivatives as therapeutic agents against acute and chronic inflammatory, ischaemic and remodelling processes” (Bayer Healthcare AG, priority 2002, dated 2010).

Target: T1, human neutrophil elastase (HNE) (Homo sapiens, UniProt P08246)
T1 construct: purchased SERVA Electrophoresis GmbH, Heidelberg, Germany #20927.01
T1 sequence (P08246 30-267): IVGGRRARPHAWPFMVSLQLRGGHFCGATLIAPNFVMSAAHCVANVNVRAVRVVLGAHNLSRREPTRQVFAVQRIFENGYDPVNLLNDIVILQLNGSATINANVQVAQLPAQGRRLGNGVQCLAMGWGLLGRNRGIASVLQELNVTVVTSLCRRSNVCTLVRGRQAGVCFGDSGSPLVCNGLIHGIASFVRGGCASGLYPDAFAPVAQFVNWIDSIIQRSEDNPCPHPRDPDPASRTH
Assay: In vitro inhibition of HNE using a fluorogenic peptide substrate (continuous read-out signal, 384 MTP assay format)
Assay type: biochemical
Conditions: substrate MeOSuc-Ala-Ala-Pro-Val-AMC, 37° C.
Experimental: I. In vitro Enzyme Assays of Human Neutrophil Elastase (HNE)
assay buffer: 0.1 M HEPES-NaOH buffer pH 7.4, 0.5 M NaCl, 0.1% (w/v) bovine serum albumin;
suitable concentration (see below) of substrate in assay buffer;
suitable concentration of test compounds diluted with assay buffer from a 10 mM stock solution in DMSO.
The test solution is prepared by mixing 10 μl of test compound dilution, 20 μl of HNE enzyme dilution (final concentration 8-0.4 μU/ml, routinely 2.1 μU/ml) and 20 μl of substrate dilution (final concentration 1 mM-1 μM, routinely 20 μM), respectively. The solution is incubated for 0-2 hrs at 37° C. (routinely one hour). The florescence of the liberated AMC due to the enzymatic reaction is measured at 37° C. (TECAN spectra fluor plus plate reader). […] IC50 values are determined by RFU-versus-[I] plots. Km and Km(app.) values are determined by Lineweaver-Burk inverted to Ki values by Dixon plots.

| IC50 [nM] | Compound |
| --- | --- |
| 40 | N#CC1=C(N)N(c2cccc(C(F)(F)F)c2)C(=O)NC1c1ccc(C#N)cc1 (stereo not shown) [Example 9, 6-Amino-4-(4-cyanophenyl)-2-oxo-1-[3-(trifluoromethyl)phenyl]-1,2,3,4-tetrahydro-5-pyrimidinecarbonitrile] |
| 5 | CCOC(=O)C1=C(C)N(c2cccc(C(F)(F)F)c2)C(=O)N(C)C1c1ccc(C#N)cc1 (stereo not shown) [Example 14, Ethyl 4-(4-cyanophenyl)-3,6-dimethyl-2-oxo-1-[3-(trifluoromethyl)phenyl]-1,2,3,4-tetrahydro-5-pyrimidinecarboxylate] |
| 8 | CCOC(=O)C1=C(C)N(c2cccc(C(F)(F)F)c2)C(=O)N(C(C)=O)C1c1ccc(C#N)cc1 (stereo not shown) [Example 15, Ethyl 3-acetyl-4-(4-cyanophenyl)-6-methyl-2-oxo-1-[3-(trifluoromethyl)phenyl]-1,2,3,4-tetrahydro-5-pyrimidinecarboxylate] |
| 10 | CCOC(=O)C1=C(C)N(c2cccc(C(F)(F)F)c2)C(=O)N(C(=O)OCC)C1c1ccc(C#N)cc1 (stereo not shown) [Example 16, Diethyl 6-(4-cyanophenyl)-4-methyl-2-oxo-3-[3-(trifluoromethyl)phenyl]-3,6-di-hydro-1,5(2H)-pyrimidinedicarboxylate] |
| 700 | CCOC(=O)C1=C(CN(CC)CC)N(c2cccc(C(F)(F)F)c2)C(=O)NC1c1ccc(C#N)cc1 (stereo not shown) [Example 20, Ethyl 4-(4-cyanophenyl)-6-[(diethylamino)methyl]-2-oxo-1-[3-(trifluoromethyl)-phenyl]-1,2,3,4-tetrahydro-5-pyrimidinecarboxylate] |
| 13 | CCOC(=O)C1=C(C)N(c2cccc(C(F)(F)F)c2)C(=O)NC1c1ccc(C#N)nc1 (stereo not shown) [Example 24, Ethyl 4-(6-cyano-3-pyridinyl)-6-methyl-2-oxo-1-[3-(trifluoromethyl)phenyl]-1,2,3,4-tetrahydro-5-pyrimidinecarboxylate] |
| 50 | CC1=C(C(=O)OCCc2ccncc2)C(c2ccc(C#N)cc2)NC(=O)N1c1cccc(C(F)(F)F)c1 (stereo not shown) [Example 28, 2-(4-Pyridinyl)ethyl 4-(4-cyanophenyl)-6-methyl-2-oxo-1-[3-(trifluoromethyl)phenyl]-1,2,3,4-tetrahydro-5-pyrimidinecarboxylate] |
| 1100 | CC1=C(C(=O)N(C)C)C(c2ccc(C#N)cc2)NC(=O)N1c1cccc(C(F)(F)F)c1 (stereo not shown) [Example 58] |
| 5 | CCOC(=O)C1=C(C)N(c2cccc(C(F)(F)F)c2)C(=O)N(CC(=O)N2CCN(C)CC2)C1c1ccc(C#N)cc1 (stereo not shown) [Example 60] |
| 60 | CCOC(=O)C1=C(C)N(c2cccc(C(F)(F)F)c2)C(=O)NC1c1cccc([N+](=O)[O-])c1 (stereo not shown) [Example 103, Ethyl 6-methyl-4-(3-nitrophenyl)-2-oxo-1-[3-(trifluoromethyl)phenyl]-1,2,3,4-tetra-hydro-5-pyrimidinecarboxylate] |
| 50 | CCOC(=O)C1=C(C)N(c2cccc(C(F)(F)F)c2)C(=O)NC1c1ccc([N+](=O)[O-])cc1 (stereo not shown) [Example 110, Ethyl 6-methyl-4-(4-nitrophenyl)-2-oxo-1-[3-(trifluoromethyl)phenyl]-1,2,3,4-tetra-hydropyrimidine-5-carboxylate] |

Test system: human polymorphonuclear cells (PMNs)
Assay: In vitro PMN elastolysis assay (tritiated elastin)
Assay type: cell-based
Conditions: at 1.2 μM; mean±s.e.m.; n=3 different donors at 3.6×10^5 cells per well
Experimental: In Vitro PMN Elastolysis Assay:
This assay is used to determine the elastolytic potential of human polymorphonuclear cells (PMNs) and assess the proportion of degradation due to neutrophil elastase [cf. Z. W. She et al., Am. J. Respir. Cell. Mol. Biol. 9, 386-392 (1993)].
Tritiated elastin, in suspension, is coated on to a 96 well plate at 10 μg per well. Test and reference [ZD-0892 (J. Med. Chem. 40, 1876-1885, 3173-3181 (1997), WO 95/21855) and α1 protease inhibitor (α1PI)] compounds are added to the wells at the appropriate concentrations. […] Porcine pancreatic elastase (1.3 μM is used as a positive control for the assay, and α1PI (1.2 μM) is used as the positive inhibitor of neutrophil elastase. The cellular control is PMNs without compound at each appropriate cell density. The cells plus compounds are incubated in a humidified incubator at 37° C. for 4 hours. The plates are centrifuged to allow the harvest of cell supernatant only. The supernatant is transferred in 75 μl volumes to corresponding wells of a 96 well Lumaplate™ (solid scintillant containing plates). The plates are dried until no liquid is visible in the wells and read in a beta counter for 3 minutes per well. […]
The compounds of this invention are evaluated for their inhibitory activity in this HNE-dependent model of neutrophil elastolysis.

| Compound | inhibition of elastolysis [%] |
| --- | --- |
| α1PI: α1 protease inhibitor, reference and positive inhibitor of neutrophil elastase | 83.46±3.97 |

Same assay, conditions: mean±s.e.m.; n=2 different donors at 3.6×10^5 cells per well

| IC50 [nM] | Compound |
| --- | --- |
| 45.5 ± 7.75 | COc1ccc(C(=O)N[C@H](C(=O)N2CCC[C@H]2C(=O)N[C@H](C(=O)C(F)(F)F)C(C)C)C(C)C)cc1 [ZD-0892] |
